Experimental data as given in patent publication US20250101041A1, “POSITIVE ALLOSTERIC MODULATORS OF THE MUSCARINIC ACETYLCHOLINE RECEPTOR M4” (Vanderbilt University, priority 2022, published 2025).

Target: T1, human mAChR M4 (Homo sapiens, UniProt P08173)
T1 construct: expressed in transfected cells; host or cells: CHO-K1 (American Type Culture Collection), stably expressing hM4 and Gqi5
T1 sequence (P08173 1-479): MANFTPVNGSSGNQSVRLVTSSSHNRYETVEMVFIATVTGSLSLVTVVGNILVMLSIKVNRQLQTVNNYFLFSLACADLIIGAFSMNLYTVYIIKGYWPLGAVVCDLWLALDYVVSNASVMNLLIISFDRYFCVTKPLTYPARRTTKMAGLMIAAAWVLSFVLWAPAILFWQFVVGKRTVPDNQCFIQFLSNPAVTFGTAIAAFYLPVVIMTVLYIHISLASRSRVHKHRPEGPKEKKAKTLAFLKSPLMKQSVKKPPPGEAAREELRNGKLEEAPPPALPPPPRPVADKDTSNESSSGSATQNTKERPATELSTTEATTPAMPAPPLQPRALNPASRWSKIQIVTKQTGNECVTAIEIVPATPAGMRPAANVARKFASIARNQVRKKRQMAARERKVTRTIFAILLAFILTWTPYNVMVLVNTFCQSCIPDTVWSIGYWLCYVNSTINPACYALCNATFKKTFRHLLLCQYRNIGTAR
Test: mAChR M4 cell-based functional assay: calcium mobilization (Fluo-4, FDSS), potentiation of EC20 acetylcholine response in hM4-Gqi5 CHO-K1 cells
Conditions: human M4; for Emax at 30 µM: CHO-K1, % ACh maximum at 30 μM; for EC50: potentiation of EC20 acetylcholine response, calcium mobilization
Procedure, shortened: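 CHO-K1 cells stably co-expressing human M4 and chimeric Gqi5, loaded with Fluo-4 AM (50 min, 37 °C). Compounds in 11-point 1:3 series added first; EC20 acetylcholine added at 144 s and again at 230 s. Calcium read on FDSS at 1 Hz; EC50 and Emax from four-parameter logistic fit of potentiated EC20 response.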

Cc1cc(=O)n2nc(N3CCc4ncc(-c5ccc(F)nc5)cc4C3)c(C)c(C)c2n1 [Compound 1-204, 7-(3-(6-fluoropyridin-3-yl)-7,8-dihydro-1,6-naphthyridin-6(5H)-yl)-2,8,9-trimethyl-4H-pyrimido[1,2-b]pyridazin-4-one]
Emax at 30 µM: 92%
EC50: 0.102 µM

COc1cc(-c2cnc3c(c2)CN(c2nn4c(=O)ccnc4cc2C)CC3)c(Cl)cn1 [Compound 1-57, 7-(3-(5-chloro-2-methoxypyridin-4-yl)-7,8-dihydro-1,6-naphthyridin-6(5H)-yl)-8-methyl-4H-pyrimido[1,2-b]pyridazin-4-one]
Emax at 30 µM: 70%
EC50: 0.735 µM

COCc1cc(=O)n2nc(N3CCc4ncc(-c5ccccc5F)cc4C3)c(C)cc2n1 [Compound 1-360, 7-(3-(2-fluorophenyl)-7,8-dihydro-1,6-naphthyridin-6(5H)-yl)-2-(methoxymethyl)-8-methyl-4H-pyrimido[1,2-b] pyridazin-4-one]
Emax at 30 µM: 83%
EC50: 0.245 µM

Cc1cc(=O)n2nc(N3CCc4ncc(Nc5ccnn5C)cc4C3)c(C)cc2n1 [Compound 2-20, 2,8-dimethyl-7-(3-((1-methyl-1H-pyrazol-5-yl)amino)-7,8-dihydro-1,6-naphthyridin-6(5H)-yl)-4H-pyrimido[1,2-b]pyridazin-4-one]
Emax at 30 µM: 88%
EC50: 0.166 µM

Cc1cc2ncc(Cl)c(=O)n2nc1N1CCc2ncc(-c3ccnn3C)cc2C1 [Compound 1-10, 3-chloro-8-methyl-7-(3-(1-methyl-1H-pyrazol-5-yl)-7,8-dihydro-1,6-naphthyridin-6(5H)-yl)-4H-pyrimido[1,2-b]pyridazin-4-one]
Emax at 30 µM: 86%
EC50: 0.162 µM

Cc1cc2nccc(=O)n2nc1N1CCc2ncc(Nc3ccnnc3)cc2C1 [Compound 2-136, 8-methyl-7-(3-(pyridazin-4-ylamino)-7,8-dihydro-1,6-naphthyridin-6(5H)-yl)-4H-pyrimido[1,2-b]pyridazin-4-one]
Emax at 30 µM: 101%
EC50: 0.308 µM

Cc1ccncc1Nc1cnc2c(c1)CN(c1nn3c(=O)ccnc3cc1C)CC2 [Compound 2-124, 8-methyl-7-(3-((4-methylpyridin-3-yl)amino)-7,8-dihydro-1,6-naphthyridin-6(5H)-yl)-4H-pyrimido[1,2-b]pyridazin-4-one]
Emax at 30 µM: 87%
EC50: 0.163 µM

Cc1ccc(-c2cnc3c(c2)CN(c2nn4c(=O)c(Br)cnc4c(C)c2C)CC3)cn1 [Compound 1-88, 3-bromo-8,9-dimethyl-7-(3-(6-methylpyridin-3-yl)-7,8-dihydro-1,6-naphthyridin-6(5H)-yl)-4H-pyrimido[1,2-b]pyridazin-4-one]
Emax at 30 µM: 83%
EC50: 0.097 µM

Cc1cc2nccc(=O)n2nc1N1CCc2ncc(NC(=O)c3ncco3)cc2C1 [Compound 2-122, N-(6-(8-methyl-4-oxo-4H-pyrimido[1,2-b]pyridazin-7-yl)-5,6,7,8-tetrahydro-1,6-naphthyridin-3-yl)oxazole-2-carboxamide]
Emax at 30 µM: 44%
EC50: 1.88 µM

Cc1c(N2CCc3ncc(-c4cncc(C#N)c4)cc3C2)nn2c(=O)ccnc2c1C [Compound 1-223, 5-(6-(8,9-dimethyl-4-oxo-4H-pyrimido[1,2-b]pyridazin-7-yl)-5,6,7,8-tetrahydro-1,6-naphthyridin-3-yl)nicotinonitrile]
Emax at 30 µM: 64%
EC50: 0.618 µM

COc1cc(C)c(-c2cnc3c(c2)CN(c2nn4c(=O)ccnc4c(C)c2C)CC3)cn1 [Compound 1-139, 7-(3-(6-methoxy-4-methylpyridin-3-yl)-7,8-dihydro-1,6-naphthyridin-6(5H)-yl)-8,9-dimethyl-4H-pyrimido[1,2-b]pyridazin-4-one]
Emax at 30 µM: 98%
EC50: 0.077 µM

CCc1ccccc1-c1cnc2c(c1)CN(c1nn3c(=O)ccnc3c(C)c1C)CC2 [Compound 1-342, 7-(3-(2-ethylphenyl)-7,8-dihydro-1,6-naphthyridin-6(5H)-yl)-8,9-dimethyl-4H-pyrimido[1,2-b]pyridazin-4-one]
Emax at 30 µM: 72%
EC50: 0.204 µM

Cc1cc2nccc(=O)n2nc1N1CCc2ncc(-c3ccc(=O)n(C)c3)cc2C1 [Compound 1-49, 8-methyl-7-(3-(1-methyl-6-oxo-1,6-dihydropyridin-3-yl)-7,8-dihydro-1,6-naphthyridin-6(5H)-yl)-4H-pyrimido[1,2-b]pyridazin-4-one]
Emax at 30 µM: 98%
EC50: 2.34 µM

Cc1cc2nccc(=O)n2nc1N1CCc2ncc(-c3cccnc3C(C)C)cc2C1 [Compound 1-422, 7-(3-(2-isopropylpyridin-3-yl)-7,8-dihydro-1,6-naphthyridin-6(5H)-yl)-8-methyl-4H-pyrimido [1,2-b]pyridazin-4-one]
Emax at 30 µM: 64%
EC50: 1.72 µM

Cc1cc2nccc(=O)n2nc1N1CCc2ncc(N3CCc4ncccc43)cc2C1 [Compound 2-58, 7-(3-(2,3-dihydro-1H-pyrrolo[3,2-b]pyridin-1-yl)-7,8-dihydro-1,6-naphthyridin-6(5H)-yl)-8-methyl-4H-pyrimido[1,2-b]pyridazin-4-one]
Emax at 30 µM: 86%
EC50: 0.188 µM

Cc1c(N2CCc3ncc(-c4cnn(C5COC5)c4)cc3C2)nn2c(=O)cc(C(F)F)nc2c1C [Compound 1-309, 2-(difluoromethyl)-8,9-dimethyl-7-(3-(1-(oxetan-3-yl)-1H-pyrazol-4-yl)-7,8-dihydro-1,6-naphthyridin-6(5H)-yl)-4H-pyrimido[1,2-b]pyridazin-4-one]
Emax at 30 µM: 88%
EC50: 0.203 µM

Cc1cc2nccc(=O)n2nc1N1CCc2ncc(-c3ncc(C)n3C)cc2C1 [Compound 1-391, 7-(3-(1,5-dimethyl-1H-imidazol-2-yl)-7,8-dihydro-1,6-naphthyridin-6(5H)-yl)-8-methyl-4H-pyrimido[1,2-b]pyridazin-4-one]
Emax at 30 µM: 49%

Cc1cc(=O)n2nc(N3CCc4ncc(-c5ccc(F)c(F)c5)cc4C3)c(C)c(C)c2n1 [Compound 1-205, 7-(3-(3,4-difluorophenyl)-7,8-dihydro-1,6-naphthyridin-6(5H)-yl)-2,8,9-trimethyl-4H-pyrimido[1,2-b]pyridazin-4-one]
Emax at 30 µM: 81%
EC50: 1.24 µM

COCc1cc(=O)n2nc(N3CCc4ncc(-c5cncnc5)cc4C3)c(C)cc2n1 [Compound 1-324, 2-(methoxymethyl)-8-methyl-7-(3-(pyrimidin-5-yl)-7,8-dihydro-1,6-naphthyridin-6(5H)-yl)-4H-pyrimido[1,2-b] pyridazin-4-one]
Emax at 30 µM: 59%

Cc1cc2nccc(=O)n2nc1N1CCc2ncc(-c3cncc(F)c3C)cc2C1 [Compound 1-399, 7-(3-(5-fluoro-4-methylpyridin-3-yl)-7,8-dihydro-1,6-naphthyridin-6(5H)-yl)-8-methyl-4H-pyrimido[1,2-b]pyridazin-4-one]
Emax at 30 µM: 63%
EC50: 0.13 µM

Cc1cc2nccc(=O)n2nc1N1CCc2ncc(Nc3ccnc(F)c3)cc2C1 [Compound 2-123, 7-(3-((2-fluoropyridin-4-yl)amino)-7,8-dihydro-1,6-naphthyridin-6(5H)-yl)-8-methyl-4H-pyrimido[1,2-b]pyridazin-4-one]
Emax at 30 µM: 92%
EC50: 0.016 µM

Cc1cc(=O)n2nc(N3CCc4ncc(N5CC6CC5CO6)cc4C3)c(C)cc2n1 (stereo not shown) [Compound 2-42, 7-(3-(2-oxa-5-azabicyclo[2.2.1]heptan-5-yl)-7,8-dihydro-1,6-naphthyridin-6(5H)-yl)-2,8-dimethyl-4H-pyrimido[1,2-b]pyridazin-4-one]
Emax at 30 µM: 77%
EC50: 0.85 µM

Cc1cc2nccc(=O)n2nc1N1CCc2ncc(Nc3ccnn3C)cc2C1 [Compound 2-8, 8-methyl-7-(3-((1-methyl-1H-pyrazol-5-yl)amino)-7,8-dihydro-1,6-naphthyridin-6(5H)-yl)-4H-pyrimido[1,2-b]pyridazin-4-one]
Emax at 30 µM: 84%
EC50: 0.384 µM

Cc1cc2nccc(=O)n2nc1N1CCc2ncc(-c3ccnn3C(C)C)cc2C1 [Compound 1-396, 7-(3-(1-isopropyl-1H-pyrazol-5-yl)-7,8-dihydro-1,6-naphthyridin-6(5H)-yl)-8-methyl-4H-pyrimido[1,2-b]pyridazin-4-one]
Emax at 30 µM: 60%
EC50: 0.597 µM

Cc1cc2nccc(=O)n2nc1N1CCc2ncc(Nc3cccc(C#N)c3)cc2C1 [Compound 2-80, 3-((6-(8-methyl-4-oxo-4H-pyrimido[1,2-b]pyridazin-7-yl)-5,6,7,8-tetrahydro-1,6-naphthyridin-3-yl)amino)benzonitrile]
Emax at 30 µM: 97%
EC50: 0.047 µM

COc1ccc(F)c(Nc2cnc3c(c2)CN(c2nn4c(=O)ccnc4cc2C)CC3)c1 [Compound 2-70, 7-(3-((2-fluoro-5-methoxyphenyl)amino)-7,8-dihydro-1,6-naphthyridin-6(5/)-yl)-8-methyl-4H-pyrimido[1,2-b]pyridazin-4-one]
Emax at 30 µM: 94%
EC50: 0.085 µM

Cc1c(N2CCc3ncc(C(F)(F)F)cc3C2)nn2c(=O)cc(C(F)F)nc2c1C [Compound 1-40, 2-(difluoromethyl)-8,9-dimethyl-7-(3-(trifluoromethyl)-7,8-dihydro-1,6-naphthyridin-6(5H)-yl)-4H-pyrimido[1,2-b]pyridazin-4-one]
Emax at 30 µM: 93%
EC50: 0.038 µM
